Experiment: Study 2 hematology
Type: in vivo, human
Conditions: for Basophils (absolute) % Change / Basophils, % - % Change / Eosinophils (absolute) % Change / Eosinophils, % - % Change / Hematocrit % Change / Hemoglobin % Change / Lymphocytes (absolute) % Change / Lymphocytes, % - % Change / MCH % Change / MCHC % Change / MCV % Change / Monocytes (absolute) % Change / Monocytes, % - % Change / Neutrophils (absolute) % Change / Neutrophils, % - % Change / Platelets % Change / RBC % Change / RDW % Change / WBC % Change: Before to After
Description: Study 2 design. Study 2 was conducted similar to study 1 with the following modifications. In study 2, plasma levels of HMB were measured for 1440 min (24 h) and total urine collection was also performed for measurement of urinary HMB excretion during this period. After the 180 min blood sample, the subjects were allowed to leave the laboratory and were instructed to return to the laboratory for additional blood samples at 360, 720, and 1440 min after the ingestion of the supplement. As in study 1, each subject took each of the treatments with at least a one week washout period between treatments. Samples were again stored frozen at −70° C. for analysis of plasma and urinary HMB concentrations. Pre-ingestion, 180 min and 1440 min blood samples were again assayed for the same measurements already for study 1. Subjects were provided with a standardized lunch after the 180 min blood sampling and instructed to eat this at approximately 240 min post ingestion. Following the 720 min blood sample, subjects were instructed to eat a normal evening meal before 10 pm. Subjects reported back to the laboratory the following morning for the fasted 1440 min blood sample. A urine collection container was provided and subjects collected all urine produced during the experimental 24 h experimental period. The urine was stored refrigerated when not being collected. Urine volumes were measured and samples of the total urine collection were taken and stored frozen at −70° C. until analyzed for HMB.
The data were analyzed using a crossover design with Proc GLM in SAS. (45) For the timed sampling of plasma HMB a repeated measures polynomial model was used. The model included subject, order, and treatment main effects and time by treatment interaction where appropriate. For other parameters Proc GLM was also used with subject, order, and treatment main effects and the p values are reported for the treatment main effect. Statistical significance was determined for p<0.05 and a trend was determined for 0.05<p<0.10.

CC(C)(O)CC(=O)O [HMB-Acid Gel Sublingual, 3-hydroxy-3-methylbutyric acid]
Basophils (absolute) (After (24 h)): 0.04 ± 0.0 ×10^3/μL | Basophils, % (After (24 h)): 0.4 ± 0.2% | Eosinophils (absolute) (After (24 h)): 0.2 ± 0.03 ×10^3/μL | Eosinophils, % (After (24 h)): 3.3 ± 0.5% | Hematocrit (After (24 h)): 38.6 ± 1.3% | Hemoglobin (After (24 h)): 13.2 ± 0.5 g/dL | Lymphocytes (absolute) (After (24 h)): 3.1 ± 0.3 ×10^3/μL | Lymphocytes, % (After (24 h)): 45.6 ± 3.4% | MCH (After (24 h)): 30.5 ± 0.5 pg | MCHC (After (24 h)): 34.5 ± 0.2 g/dL | MCV (After (24 h)): 89.3 ± 1.4 fL | Monocytes (absolute) (After (24 h)): 0.6 ± 0.05 ×10^3/μL | Monocytes, % (After (24 h)): 8.4 ± 0.9% | Neutrophils (absolute) (After (24 h)): 2.9 ± 0.3 ×10^3/μL | Neutrophils, % (After (24 h)): 42.4 ± 3.5% | Platelets (After (24 h)): 244.3 ± 17.5 ×10^3/μL | RBC (After (24 h)): 4.3 ± 0.1 ×10^6/µL | RDW (After (24 h)): 13.4 ± 0.2% | WBC (After (24 h)): 6.8 ± 0.3 ×10^3/μL | Basophils (absolute) (Before): 0.06 ± 0.02 ×10^3/μL | Basophils, % (Before): 0.6 ± 0.2% | Eosinophils (absolute) (Before): 0.2 ± 0.04 ×10^3/μL | Eosinophils, % (Before): 2.5 ± 0.5% | Hematocrit (Before): 37.5 ± 1.4% | Hemoglobin (Before): 13.2 ± 0.5 g/dL | Lymphocytes (absolute) (Before): 3.0 ± 0.3 ×10^3/μL | Lymphocytes, % (Before): 43.1 ± 4.2% | MCH (Before): 30.4 ± 0.5 pg | MCHC (Before): 34.5 ± 0.2 g/dL | MCV (Before): 88.4 ± 1.5 fL | Monocytes (absolute) (Before): 0.6 ± 0.05 ×10^3/μL | Monocytes, % (Before): 8.3 ± 1.0% | Neutrophils (absolute) (Before): 3.3 ± 0.5 ×10^3/μL | Neutrophils, % (Before): 45.3 ± 5.2% | Platelets (Before): 233.8 ± 14.2 ×10^3/μL | RBC (Before): 4.3 ± 0.1 ×10^6/µL | RDW (Before): 13.3 ± 0.2% | WBC (Before): 7.1 ± 0.4 ×10^3/μL | Basophils (absolute) % Change: −40.0% | Basophils, % - % Change: −40.0% | Eosinophils (absolute) % Change: 35.7% | Eosinophils, % - % Change: 30.0% | Hematocrit % Change: 2.9% | Hemoglobin % Change: 0.4% | Lymphocytes (absolute) % Change: 5.0% | Lymphocytes, % - % Change: 5.8% | MCH % Change: 0.3% | MCHC % Change: 0.1% | MCV % Change: 1.0% | Monocytes (absolute) % Change: 0.0% | Monocytes, % - % Change: 1.5% | Neutrophils (absolute) % Change: −12.1% | Neutrophils, % - % Change: −6.4% | Platelets % Change: 4.5% | RBC % Change: 0.1% | RDW % Change: 0.7% | WBC % Change: −3.5%

CC(C)(O)CC(=O)O [HMB-Acid Gel Swallow, 3-hydroxy-3-methylbutyric acid]
Basophils (absolute) (After (24 h)): 0.09 ± 0.03 ×10^3/μL | Basophils, % (After (24 h)): 0.9 ± 0.3% | Eosinophils (absolute) (After (24 h)): 0.2 ± 0.04 ×10^3/μL | Eosinophils, % (After (24 h)): 3.0 ± 0.5% | Hematocrit (After (24 h)): 38.9 ± 1.1% | Hemoglobin (After (24 h)): 13.4 ± 0.4 g/dL | Lymphocytes (absolute) (After (24 h)): 3.1 ± 0.3 ×10^3/μL | Lymphocytes, % (After (24 h)): 43.3 ± 3.9% | MCH (After (24 h)): 30.5 ± 0.6 pg | MCHC (After (24 h)): 34.5 ± 0.2 g/dL | MCV (After (24 h)): 88.6 ± 1.5 fL | Monocytes (absolute) (After (24 h)): 0.5 ± 0.04 ×10^3/μL | Monocytes, % (After (24 h)): 6.9 ± 0.8% | Neutrophils (absolute) (After (24 h)): 3.3 ± 0.4 ×10^3/μL | Neutrophils, % (After (24 h)): 46.0 ± 4.4% | Platelets (After (24 h)): 242.4 ± 12.2 ×10^3/μL | RBC (After (24 h)): 4.4 ± 0.1 ×10^6/µL | RDW (After (24 h)): 13.2 ± 0.2% | WBC (After (24 h)): 7.1 ± 0.3 ×10^3/μL | Basophils (absolute) (Before): 0.05 ± 0.02 ×10^3/μL | Basophils, % (Before): 0.5 ± 0.2% | Eosinophils (absolute) (Before): 0.2 ± 0.03 ×10^3/μL | Eosinophils, % (Before): 2.8 ± 0.5% | Hematocrit (Before): 37.4 ± 1.0% | Hemoglobin (Before): 13.0 ± 0.4 g/dL | Lymphocytes (absolute) (Before): 2.8 ± 0.2 ×10^3/μL | Lymphocytes, % (Before): 43.6 ± 2.4% | MCH (Before): 30.6 ± 0.6 pg | MCHC (Before): 34.8 ± 0.2 g/dL | MCV (Before): 88.1 ± 1.5 fL | Monocytes (absolute) (Before): 0.5 ± 0.1 ×10^3/μL | Monocytes, % (Before): 7.5 ± 1.1% | Neutrophils (absolute) (Before): 2.9 ± 0.2 ×10^3/μL | Neutrophils, % (Before): 45.6 ± 2.7% | Platelets (Before): 229.0 ± 12.9 ×10^3/μL | RBC (Before): 4.2 ± 0.1 ×10^6/µL | RDW (Before): 13.3 ± 0.2% | WBC (Before): 6.4 ± 0.3 ×10^3/μL | Basophils (absolute) % Change: 75.0% | Basophils, % - % Change: 75.0% | Eosinophils (absolute) % Change: 13.3% | Eosinophils, % - % Change: 9.1% | Hematocrit % Change: 4.2% | Hemoglobin % Change: 3.2% | Lymphocytes (absolute) % Change: 9.4% | Lymphocytes, % - % Change: −0.9% | MCH % Change: −0.3% | MCHC % Change: −0.8% | MCV % Change: 0.6% | Monocytes (absolute) % Change: 2.6% | Monocytes, % - % Change: −8.3% | Neutrophils (absolute) % Change: 10.6% | Neutrophils, % - % Change: 0.8% | Platelets % Change: 5.8% | RBC % Change: 3.5% | RDW % Change: −0.5% | WBC % Change: 9.7%

CC(C)(O)CC(=O)[O-].CC(C)(O)CC(=O)[O-].[Ca+2] [CaHMB, calcium β-hydroxy-β-methylbutryate, reference compound]
Basophils (absolute) (After (24 h)): 0.06 ± 0.02 ×10^3/μL | Basophils, % (After (24 h)): 0.8 ± 0.2% | Eosinophils (absolute) (After (24 h)): 0.2 ± 0.03 ×10^3/μL | Eosinophils, % (After (24 h)): 2.6 ± 0.4% | Hematocrit (After (24 h)): 38.3 ± 1.7% | Hemoglobin (After (24 h)): 13.3 ± 0.6 g/dL | Lymphocytes (absolute) (After (24 h)): 2.8 ± 0.3 ×10^3/μL | Lymphocytes, % (After (24 h)): 42.5 ± 3.5% | MCH (After (24 h)): 30.7 ± 0.6 pg | MCHC (After (24 h)): 34.7 ± 0.2 g/dL | MCV (After (24 h)): 88.5 ± 1.4 fL | Monocytes (absolute) (After (24 h)): 0.5 ± 0.1 ×10^3/μL | Monocytes, % (After (24 h)): 8.5 ± 1.5% | Neutrophils (absolute) (After (24 h)): 3.0 ± 0.2 ×10^3/μL | Neutrophils, % (After (24 h)): 45.6 ± 3.3% | Platelets (After (24 h)): 235.9 ± 10.9 ×10^3/μL | RBC (After (24 h)): 4.3 ± 0.2 ×10^6/µL | RDW (After (24 h)): 13.4 ± 0.1% | WBC (After (24 h)): 6.5 ± 0.3 ×10^3/μL | Basophils (absolute) (Before): 0.06 ± 0.02 ×10^3/μL | Basophils, % (Before): 0.6 ± 0.2% | Eosinophils (absolute) (Before): 0.2 ± 0.04 ×10^3/μL | Eosinophils, % (Before): 2.9 ± 0.5% | Hematocrit (Before): 38.1 ± 1.8% | Hemoglobin (Before): 13.2 ± 0.7 g/dL | Lymphocytes (absolute) (Before): 3.3 ± 0.3 ×10^3/μL | Lymphocytes, % (Before): 44.8 ± 3.2% | MCH (Before): 30.6 ± 0.5 pg | MCHC (Before): 34.7 ± 0.2 g/dL | MCV (Before): 88.4 ± 1.5 fL | Monocytes (absolute) (Before): 0.5 ± 0.1 ×10^3/μL | Monocytes, % (Before): 6.9 ± 0.9% | Neutrophils (absolute) (Before): 3.3 ± 0.3 ×10^3/μL | Neutrophils, % (Before): 44.9 ± 3.8% | Platelets (Before): 228.0 ± 17.6 ×10^3/μL | RBC (Before): 4.3 ± 0.2 ×10^6/µL | RDW (Before): 13.4 ± 0.2% | Basophils (absolute) % Change: 0.0% | Basophils, % - % Change: 20.0% | Eosinophils (absolute) % Change: −12.5% | Eosinophils, % - % Change: −8.7% | Hematocrit % Change: 0.7% | Hemoglobin % Change: 0.7% | Lymphocytes (absolute) % Change: −13.5% | Lymphocytes, % - % Change: −5.0% | MCH % Change: 0.2% | MCHC % Change: 0.0% | MCV % Change: 0.1% | Monocytes (absolute) % Change: 5.0% | Monocytes, % - % Change: 23.6% | Neutrophils (absolute) % Change: −9.9% | Neutrophils, % - % Change: 1.7% | Platelets % Change: 3.5% | RBC % Change: 0.7% | RDW % Change: −0.1% | WBC % Change: −10.5%

Reference: patent publication US20210113501A1, “METHOD OF ADMINISTERING BETA-HYDROXY-BETA-METHYLBUTYRATE (HMB)” (Metabolic Technologies, Inc., priority 2009, published 2021)
